Data taken from US9695155B2, “Herbicidal substituted pyrimidinyloxy benzene compounds” (E. I. DU PONT DE NEMOURS AND COMPANY, priority 2013, dated 2017).

Legend:
large (Lg) crabgrass = assay: Test C preemergence; format: in vivo, Digitaria sanguinalis; conditions: for Crabgrass, Large plant response rating: preemergence; for Plant response rating, Crabgrass, Large: Preemergence, 31 g ai/ha, scale 0 to 100, 0 no effect, 100 complete control
In short: (§1)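 Injury was assessed visually against controls 13 to 15 days after application, with 0 meaning no effect and 100 full control; missing entries are shown as a dash. Preemergence sprays hit seeded loam–sand soil, postemergence sprays hit 1- to 4-leaf plants.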

Italian ryegrass = assay: Test A preemergence; format: in vivo, Lolium multiflorum; conditions: for Plant response rating, Ryegrass, Italian: 125 g ai/ha, 0 to 100 scale where 0 is no effect and 100 is complete control; for Ryegrass, Italian plant response rating: 500 g ai/ha, 0 to 100 scale, 0 no effect, 100 complete control, approx. 10 days
In short: (§2)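 Injury scores run from 0, no effect, to 100, complete control, judged by eye against untreated plants roughly 10 days after treatment. Chemicals carried a surfactant in a non-phytotoxic solvent and went onto loam–sand soil preemergence or onto one- to two-leaf seedlings postemergence.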

yellow nutsedge [1] = assay: Test C postemergence; format: in vivo, Cyperus esculentus; conditions: for Plant response rating (0 to 100), Nutsedge, Yellow: 125 g ai/ha, postemergence; for Plant response rating, Nutsedge, Yellow: Postemergence, scale 0 to 100 (0 no effect, 100 complete control)
In short: as §1

yellow nutsedge [2] = assay: Test C preemergence; format: in vivo, Cyperus esculentus; conditions: for Nutsedge, Yellow plant response rating: preemergence; for Plant response rating, Nutsedge, Yellow: Preemergence, 31 g ai/ha, scale 0 to 100, 0 no effect, 100 complete control
In short: as §1

chickweed = assay: Test C postemergence; format: in vivo, Stellaria media; conditions: for Chickweed plant response rating: 16 g ai/ha, visual rating; for Chickweed plant response rating / Plant response rating (0 to 100), Chickweed: postemergence; for Chickweed plant response rating / Plant response rating, Chickweed: scale 0 to 100 (0 no effect, 100 complete control); for Plant response rating (0 to 100), Chickweed: 125 g ai/ha; for Plant response rating, Chickweed: Postemergence
In short: as §1

waterhemp = assay: Test C postemergence; format: in vivo, Amaranthus rudis; conditions: for Plant response rating (0 to 100), Waterhemp: 125 g ai/ha, postemergence; for Plant response rating, Waterhemp: Postemergence, scale 0 to 100 (0 no effect, 100 complete control)
In short: as §1

johnsongrass [3] = assay: Test C postemergence; format: in vivo, Sorghum halepense; conditions: for Johnsongrass plant response rating: 16 g ai/ha, visual rating; for Johnsongrass plant response rating / Plant response rating (0 to 100), Johnsongrass: postemergence; for Johnsongrass plant response rating / Plant response rating, Johnsongrass: scale 0 to 100 (0 no effect, 100 complete control); for Plant response rating (0 to 100), Johnsongrass: 125 g ai/ha; for Plant response rating, Johnsongrass: Postemergence
In short: as §1

giant foxtail [4] = assay: Test A preemergence; format: in vivo, Setaria faberii; conditions: for Plant response rating, Foxtail, Giant: 125 g ai/ha, 0 to 100 scale where 0 is no effect and 100 is complete control; for Foxtail, Giant plant response rating: 500 g ai/ha, 0 to 100 scale, 0 no effect, 100 complete control, approx. 10 days
In short: as §2

johnsongrass [5] = assay: Test C preemergence; format: in vivo, Sorghum halepense; conditions: for Johnsongrass plant response rating: preemergence; for Plant response rating, Johnsongrass: Preemergence, 31 g ai/ha, scale 0 to 100, 0 no effect, 100 complete control
In short: as §1

giant foxtail [6] = assay: Test C preemergence; format: in vivo, Setaria faberii; conditions: for Foxtail, Giant plant response rating: preemergence; for Plant response rating, Foxtail, Giant: Preemergence, 31 g ai/ha, scale 0 to 100, 0 no effect, 100 complete control
In short: as §1

lambsquarters = assay: Test C preemergence; format: in vivo, Chenopodium album; conditions: for Lambsquarters plant response rating: preemergence; for Plant response rating, Lambsquarters: Preemergence, 31 g ai/ha, scale 0 to 100, 0 no effect, 100 complete control
In short: as §1

galium = assay: Test C preemergence; format: in vivo, Galium aparine; conditions: for Galium plant response rating: preemergence; for Plant response rating, Galium: Preemergence, 31 g ai/ha, scale 0 to 100, 0 no effect, 100 complete control
In short: as §1

soybean = assay: Test C postemergence; format: in vivo, Glycine max; conditions: for Plant response rating (0 to 100), Soybean: 125 g ai/ha, postemergence; for Plant response rating, Soybean: Postemergence, scale 0 to 100 (0 no effect, 100 complete control)
In short: as §1

giant foxtail [7] = assay: Test C postemergence; format: in vivo, Setaria faberii; conditions: for Foxtail, Giant plant response rating: 16 g ai/ha, visual rating; for Foxtail, Giant plant response rating / Plant response rating (0 to 100), Foxtail, Giant: postemergence; for Foxtail, Giant plant response rating / Plant response rating, Foxtail, Giant: scale 0 to 100 (0 no effect, 100 complete control); for Plant response rating (0 to 100), Foxtail, Giant: 125 g ai/ha; for Plant response rating, Foxtail, Giant: Postemergence
In short: as §1

[8] = 16 g ai/ha, scale 0 to 100 (0 no effect, 100 complete control)
[9] = 62 g ai/ha, scale 0 (no effect) to 100 (complete control)
[10] = 125 g ai/ha, scale 0 (no effect) to 100 (complete control)

FCc1cccc(Oc2ncc(Cl)cn2)c1-n1cc(Br)cn1 [Compound 83]
Crabgrass, Large plant response rating (large (Lg) crabgrass; [8]): 65 | Crabgrass, Large plant response rating (large (Lg) crabgrass; [9]): 100 | Crabgrass, Large plant response rating (large (Lg) crabgrass; [10]): 100 | Plant response rating, Crabgrass, Large (large (Lg) crabgrass): 85 | Plant response rating, Ryegrass, Italian (Italian ryegrass): 50 | Ryegrass, Italian plant response rating (Italian ryegrass): 60 | Plant response rating (0 to 100), Nutsedge, Yellow (yellow nutsedge [1]): 5 | Plant response rating, Nutsedge, Yellow (yellow nutsedge [1]; 31 g ai/ha, 13 to 15 days): 0 | Plant response rating, Nutsedge, Yellow (yellow nutsedge [1]; 62 g ai/ha): 5 | Nutsedge, Yellow plant response rating (yellow nutsedge [2]; [8]): 0 | Nutsedge, Yellow plant response rating (yellow nutsedge [2]; [9]): 0 | Nutsedge, Yellow plant response rating (yellow nutsedge [2]; [10]): 15 | Plant response rating, Nutsedge, Yellow (yellow nutsedge [2]): 0 | Chickweed plant response rating (chickweed; 13 to 15 days): 35 | Plant response rating (0 to 100), Chickweed (chickweed): 70 | Plant response rating, Chickweed (chickweed; 31 g ai/ha, 13 to 15 days): 40 | Plant response rating, Chickweed (chickweed; 62 g ai/ha): 60 | Plant response rating (0 to 100), Waterhemp (waterhemp): 90 | Plant response rating, Waterhemp (waterhemp; 31 g ai/ha, 13 to 15 days): 50 | Plant response rating, Waterhemp (waterhemp; 62 g ai/ha): 70 | Johnsongrass plant response rating (johnsongrass [3]; 13 to 15 days): 0 | Plant response rating (0 to 100), Johnsongrass (johnsongrass [3]): 10 | Plant response rating, Johnsongrass (johnsongrass [3]; 31 g ai/ha, 13 to 15 days): 0 | Plant response rating, Johnsongrass (johnsongrass [3]; 62 g ai/ha): 10 | Plant response rating, Foxtail, Giant (giant foxtail [4]): 100 | Foxtail, Giant plant response rating (giant foxtail [4]): 100 | Johnsongrass plant response rating (johnsongrass [5]; [8]): 0 | Johnsongrass plant response rating (johnsongrass [5]; [9]): 50 | Johnsongrass plant response rating (johnsongrass [5]; [10]): 85 | Plant response rating, Johnsongrass (johnsongrass [5]): 0 | Foxtail, Giant plant response rating (giant foxtail [6]; [8]): 5 | Foxtail, Giant plant response rating (giant foxtail [6]; [9]): 100 | Foxtail, Giant plant response rating (giant foxtail [6]; [10]): 100 | Plant response rating, Foxtail, Giant (giant foxtail [6]): 75 | Lambsquarters plant response rating (lambsquarters; [8]): 100 | Lambsquarters plant response rating (lambsquarters; [9]): 100 | Lambsquarters plant response rating (lambsquarters; [10]): 100 | Plant response rating, Lambsquarters (lambsquarters): 100 | Galium plant response rating (galium; [8]): 0 | Galium plant response rating (galium; [9]): 85 | Galium plant response rating (galium; [10]): 100 | Plant response rating, Galium (galium): 0 | Plant response rating (0 to 100), Soybean (soybean): 90 | Plant response rating, Soybean (soybean; 31 g ai/ha, 13 to 15 days): 60 | Plant response rating, Soybean (soybean; 62 g ai/ha): 70 | Foxtail, Giant plant response rating (giant foxtail [7]; 13 to 15 days): 35 | Plant response rating (0 to 100), Foxtail, Giant (giant foxtail [7]): 40 | Plant response rating, Foxtail, Giant (giant foxtail [7]; 31 g ai/ha, 13 to 15 days): 35 | Plant response rating, Foxtail, Giant (giant foxtail [7]; 62 g ai/ha): 10

N#Cc1cccc(Oc2ncc(F)cn2)c1-n1cc(I)cn1 [Compound 86]
Crabgrass, Large plant response rating (large (Lg) crabgrass; [8]): 85 | Crabgrass, Large plant response rating (large (Lg) crabgrass; [9]): 100 | Crabgrass, Large plant response rating (large (Lg) crabgrass; [10]): 100 | Plant response rating, Crabgrass, Large (large (Lg) crabgrass): 100 | Plant response rating, Ryegrass, Italian (Italian ryegrass): 10 | Ryegrass, Italian plant response rating (Italian ryegrass): 60 | Plant response rating (0 to 100), Nutsedge, Yellow (yellow nutsedge [1]): 5 | Plant response rating, Nutsedge, Yellow (yellow nutsedge [1]; 31 g ai/ha, 13 to 15 days): 0 | Plant response rating, Nutsedge, Yellow (yellow nutsedge [1]; 62 g ai/ha): 5 | Nutsedge, Yellow plant response rating (yellow nutsedge [2]; [8]): 0 | Nutsedge, Yellow plant response rating (yellow nutsedge [2]; [9]): 5 | Nutsedge, Yellow plant response rating (yellow nutsedge [2]; [10]): 35 | Plant response rating, Nutsedge, Yellow (yellow nutsedge [2]): 0 | Chickweed plant response rating (chickweed; 13 to 15 days): 40 | Plant response rating (0 to 100), Chickweed (chickweed): 80 | Plant response rating, Chickweed (chickweed; 31 g ai/ha, 13 to 15 days): 55 | Plant response rating, Chickweed (chickweed; 62 g ai/ha): 60 | Plant response rating (0 to 100), Waterhemp (waterhemp): 75 | Plant response rating, Waterhemp (waterhemp; 31 g ai/ha, 13 to 15 days): 70 | Plant response rating, Waterhemp (waterhemp; 62 g ai/ha): 60 | Johnsongrass plant response rating (johnsongrass [3]; 13 to 15 days): 0 | Plant response rating (0 to 100), Johnsongrass (johnsongrass [3]): 5 | Plant response rating, Johnsongrass (johnsongrass [3]; 31 g ai/ha, 13 to 15 days): 5 | Plant response rating, Johnsongrass (johnsongrass [3]; 62 g ai/ha): 5 | Plant response rating, Foxtail, Giant (giant foxtail [4]): 100 | Foxtail, Giant plant response rating (giant foxtail [4]): 100 | Johnsongrass plant response rating (johnsongrass [5]; [8]): 10 | Johnsongrass plant response rating (johnsongrass [5]; [9]): 60 | Johnsongrass plant response rating (johnsongrass [5]; [10]): 95 | Plant response rating, Johnsongrass (johnsongrass [5]): 20 | Foxtail, Giant plant response rating (giant foxtail [6]; [8]): 35 | Foxtail, Giant plant response rating (giant foxtail [6]; [9]): 100 | Foxtail, Giant plant response rating (giant foxtail [6]; [10]): 100 | Plant response rating, Foxtail, Giant (giant foxtail [6]): 75 | Lambsquarters plant response rating (lambsquarters; [8]): 100 | Lambsquarters plant response rating (lambsquarters; [9]): 100 | Lambsquarters plant response rating (lambsquarters; [10]): 100 | Plant response rating, Lambsquarters (lambsquarters): 100 | Galium plant response rating (galium; [8]): 90 | Galium plant response rating (galium; [9]): 98 | Galium plant response rating (galium; [10]): 90 | Plant response rating, Galium (galium): 80 | Plant response rating (0 to 100), Soybean (soybean): 75 | Plant response rating, Soybean (soybean; 31 g ai/ha, 13 to 15 days): 60 | Plant response rating, Soybean (soybean; 62 g ai/ha): 70 | Foxtail, Giant plant response rating (giant foxtail [7]; 13 to 15 days): 5 | Plant response rating (0 to 100), Foxtail, Giant (giant foxtail [7]): 25 | Plant response rating, Foxtail, Giant (giant foxtail [7]; 31 g ai/ha, 13 to 15 days): 5 | Plant response rating, Foxtail, Giant (giant foxtail [7]; 62 g ai/ha): 15
